We go through 15 compounds from ChEMBL document CHEMBL1123140, “Acylamino boronic acids and difluoroborane analogues of amino acids: potent inhibitors of chymotrypsin and elastase” (J Med Chem, 1985).

The target of the first experiment is Chymotrypsinogen B (Homo sapiens, UniProt P17538). The experiment can be described thus: Competitive inhibition of alpha-chymotrypsin.
Chain of Chymotrypsinogen B (P17538 34-164 limits assumed, other chains not shown): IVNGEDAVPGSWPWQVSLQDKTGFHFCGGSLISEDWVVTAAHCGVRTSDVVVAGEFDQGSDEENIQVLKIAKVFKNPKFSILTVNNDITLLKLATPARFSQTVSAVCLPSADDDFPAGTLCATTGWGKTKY
Chain of Chymotrypsinogen B (P17538 167-263 limits assumed, other chains not shown): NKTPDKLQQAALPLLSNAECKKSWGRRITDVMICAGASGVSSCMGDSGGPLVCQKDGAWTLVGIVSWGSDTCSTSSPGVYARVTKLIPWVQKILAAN
Turning to `CC(NC(=O)OCc1ccccc1)C(=O)NC(B(F)F)c1ccccc1` (stereo not given), affinity was put at a Ki of 2000 nM.
Same read-out and setting: for `O=C(NC(Cc1ccccc1)B(F)F)c1ccccc1` (stereo not given) the value was 650 nM; for `O=C(N[C@@H](Cc1ccccc1)B(F)F)c1ccccc1`, 270 nM; for `O=C(NC(Cc1ccccc1)B(O)O)c1ccccc1` (stereo not given), 650 nM.
On the same count and under the same terms, to `O=C(N[C@@H](Cc1ccccc1)B(O)O)c1ccccc1` belongs 360 nM.
The same measure, in the same setting: for `CC(=O)N[C@@H](Cc1ccccc1)B(F)F` the value was 1700 nM; for `CC(=O)NC(Cc1ccccc1)B(O)O` (stereo not given), 6500 nM; for `CC(=O)N[C@@H](Cc1ccccc1)B(O)O`, 2100 nM.
The compound `CC(=O)NC(Cc1ccccc1)B(F)F` (stereo not given) came in with an inhibitory constant (Ki) of 7400 nM.
Still for that read-out and setting: to `O=C(NC(B(F)F)c1ccccc1)c1ccccc1` (stereo not given) belongs 5000 nM.

Molecular target in a further experiment: not listed separately
The experiment can be described thus: Competitive inhibition of porcine elastase by the compound was evaluated. Further details: species or system Sus scrofa.
`CC[C@H](C)[C@H](NC(=O)C(C)NC(=O)OCc1ccccc1)B(O)O` (stereo not given in full): the affinity, expressed as Ki, was 120 nM.
The same measure, in the same setting: to `CC(NC(=O)OCc1ccccc1)C(=O)N[C@H](B(O)O)C(C)C` (stereo not given in full) belongs 1100 nM; to `CC[C@H](C)[C@H](NC(=O)C(C)NC(=O)OCc1ccccc1)B(F)F` (stereo not given in full), 100 nM.
As to `CC(NC(=O)OCc1ccccc1)C(=O)N[C@@H](C)B(F)F` (stereo not given in full), the affinity, expressed as Ki, was 34500 nM.
Same read-out and setting: to `CC(NC(=O)OCc1ccccc1)C(=O)N[C@H](B(F)F)C(C)C` (stereo not given in full) belongs 1000 nM.

In general, Ki refers to a dissociation constant, usually derived from enzyme kinetics or from competition with a known ligand. Higher therefore signals weaker binding.
